Assays:
Assay type in all cases: in vivo
[1] = tested on: Plutella xylostella (Diamond Back Moth); test: Example B5: Activity against Plutella xylostella, artificial diet in 24-well microtiter plates; conditions: 192 h, application rate 200 ppm, eggs, assessed 8 days after infestation, read-out: effect in at least one of the two categories (mortality or growth inhibition)
Description: Example B5: Activity Against Plutella xylostella (Diamond Back Moth)
24-well microtiter plates with artificial diet were treated with aqueous test solutions prepared from 10′000 ppm DMSO stock solutions by pipetting. After drying, Plutella eggs were pipetted through a plastic stencil onto a gel blotting paper and the plate was closed with it. The samples were assessed for mortality and growth inhibition in comparison to untreated samples 8 days after infestation.

[2] = tested on: Euschistus heros (Neotropical Brown Stink Bug); test: Example B3: Activity against Euschistus heros, sprayed soybean leaves on agar; conditions: 120 h, application rate 200 ppm, N2 nymphs, assessed 5 days after infestation, read-out: effect in at least one of the two categories (mortality or growth inhibition)
Description: Example B3: Activity Against Euschistus heros (Neotropical Brown Stink Bug)
Soybean leaves on agar in 24-well microtiter plates were sprayed with aqueous test solutions prepared from 10′000 ppm DMSO stock solutions. After drying the leaves were infested with N2 nymphs. The samples were assessed for mortality and growth inhibition in comparison to untreated samples 5 days after infestation.

[3] = tested on: Diabrotica Balteata (Corn Root Worm); test: Example B2: Activity against Diabrotica balteata, sprayed maize sprouts on agar; conditions: 96 h, application rate 200 ppm, L2 larvae, assessed 4 days after infestation, read-out: effect in at least one of the two categories (mortality or growth inhibition)
Description: Example B2: Activity Against Diabrotica Balteata (Corn Root Worm)
Maize sprouts placed onto an agar layer in 24-well microtiter plates were treated with aqueous test solutions prepared from 10′000 ppm DMSO stock solutions by spraying. After drying, the plates were infested with L2 larvae (6 to 10 per well). The samples were assessed for mortality and growth inhibition in comparison to untreated samples 4 days after infestation.

[4] = tested on: Myzus persicae (Green peach aphid); test: Example B4: Activity against Myzus persicae, feeding/contact activity on sunflower leaf discs; conditions: foliar, 144 h, application rate 200 ppm, aphid population of mixed ages, assessed 6 days after infestation
Description: Example B4: Activity against Myzus persicae (Green peach aphid) Feeding/Contact activity Sunflower leaf discs were placed onto agar in a 24-well microtiter plate and sprayed with aqueous test solutions prepared from 10′000 ppm DMSO stock solutions. After drying, the leaf discs were infested with an aphid population of mixed ages. The samples were assessed for mortality 6 days after infestation.

[5] = tested on: Spodoptera littoralis (Egyptian Cotton Leaf Worm); test: Example B6: Activity against Spodoptera littoralis, sprayed cotton leaf discs on agar; conditions: foliar, 72 h, application rate 200 ppm, L1 larvae, assessed 3 days after infestation, read-out: control (at least one of mortality, anti-feedant effect, growth inhibition)
Description: Example B6: Activity Against Spodoptera littoralis (Egyptian Cotton Leaf Worm)
Cotton leaf discs were placed onto agar in 24-well microtiter plates and sprayed with aqueous test solutions prepared from 10′000 ppm DMSO stock solutions. After drying the leaf discs were infested with five L1 larvae. The samples were assessed for mortality, anti-feeding effect, and growth inhibition in comparison to untreated samples 3 days after infestation. Control of Spodoptera littoralis by a test sample is given when at least one of the categories mortality, anti-feedant effect, and growth inhibition is higher than the untreated sample.

[6] = tested on: Chilo suppressalis (Striped Rice Stemborer); test: Example B1: Activity against Chilo suppressalis, artificial diet in 24-well microtiter plates; conditions: 144 h, application rate 200 ppm, L2 larvae, assessed 6 days after infestation, read-out: control (at least one of mortality, anti-feedant effect, growth inhibition)
Description: Example B1: Activity Against Chilo suppressalis (Striped Rice Stemborer)
24-well microtiter plates with artificial diet were treated with aqueous test solutions prepared from 10′000 ppm DMSO stock solutions by pipetting. After drying, the plates were infested with L2 larvae (6-8 per well). The samples were assessed for mortality, anti-feeding effect, and growth inhibition in comparison to untreated samples 6 days after infestation. Control of Chilo suppressalis by a test sample is given when at least one of the categories mortality, anti-feedant effect, and growth inhibition is higher than the untreated sample.

CCS(=O)(=O)c1c(N2Cc3cc4c(cc3C2=O)OC(F)(F)O4)nn2cc(C3CC3)ccc12 [P4, 6-(6-cyclopropyl-3-ethylsulfonyl-pyrazolo[1,5-a]pyridin-2-yl)-2,2-difluoro-5H-[1,3]dioxolo[4,5-f]isoindol-7-one]
≥ 80%: percent effect (mortality or growth inhibition) at 200 ppm [1] | percent effect (mortality or growth inhibition) at 200 ppm [2] | percent effect (mortality or growth inhibition) at 200 ppm [3] | mortality at 200 ppm [4] | percent control (mortality, anti-feedant effect or growth inhibition) at 200 ppm [5] | control (mortality, anti-feedant effect or growth inhibition) at 200 ppm [6]

— patent US20250145640A1, “2,2-DIFLUORO-5H-[1,3]DIOXOLO[4,5-F]ISOINDOL-7-ONE DERIVATIVES AS PESTICIDES” (SYNGENTA CROP PROTECTION AG, priority 2021, published 2025)
